Converted amounts (≈) assume the structure as drawn. “And” between values parts separate entries of the source, which are not always exact repeats. Equal entries are not always repeated.
Columns and labels:
CYP3A4 [1] = molecular target: T1, CYP3A4 (Homo sapiens, UniProt P08684); conditions: background statement; cited from earlier work
CYP3A = conditions: in vitro, cited from earlier work
[2] = test system: S. pneumoniae AUCC489, macrolide & penicillin resistant; assay: Minimum inhibitory concentration (MIC), broth microdilution, AUCC489; assay type: cell-based, Streptococcus pneumoniae
Method: (§1) Protocols for Determining Minimum Inhibitory Concentration (MIC) of Test Compounds Against Streptococcus Pneumoniae Strains
(§2) The test strains are revived from frozen stock on blood agar plates and incubated at 35±2° C. for 18-20 hours in 5% CO2. Colonies are directly suspended from an overnight grown agar culture in CAMHB/saline and optical density adjusted to 0.5 McFarland turbidity standard (1-2×10^8 cfu/mL). Adjusted cultures are further diluted 1:100 using CAMHB such that after inoculation each well finally contains ˜5×10^5 cfu/mL. For broth dilution testing of Streptococcus species, CAMHB is supplemented with 2.5-5% v/v LHB. Colony counts of inoculum suspension is estimated by ten-fold serial dilutions and plating each dilution on agar plate. After incubation, the plates are observed for growth and microbial counts determined.
(§3) Compounds are weighed and dissolved in water/DMSO/other solvent to yield 1 mg/mL stock solution. Serial two-fold dilutions of the test compounds and reference antibiotics are prepared. 50 μL of the diluted drug solutions are dispensed in wells of microtiter trays (96 well).
(§4) To each of the wells of the microtiter tray, 50 μL of the diluted organism are inoculated to obtain a final inoculum density of ˜5×10^5 cfu/mL. Broth control, compound control and organism control wells are set up.
(§5) MIC testing are done in duplicates
(§6) MIC is defined as the lowest concentration of an antimicrobial agent that prevents visible growth of a microorganism in broth dilution susceptibility test.
(§7) After incubation period, growth of organism in the wells are detected by unaided eye facilitated by a viewing device. The amount of growth in the drug-containing wells are compared with the amount of growth in the organism-control wells.

[3] = test system: S. pneumoniae AUCC488, macrolide & penicillin resistant; assay: Minimum inhibitory concentration (MIC), broth microdilution, AUCC488; assay type: cell-based, Streptococcus pneumoniae
Method: as §1, §2, §3, §4, §5, §6, §7

[4] = test system: S. pneumoniae AUCC479, macrolide & penicillin sensitive; assay: Minimum inhibitory concentration (MIC), broth microdilution, AUCC479; assay type: cell-based, Streptococcus pneumoniae
Method: as §1, §2, §3, §4, §5, §6, §7

CYP3A4 [5] = molecular target: T1, CYP3A4; assay: biochemical
Method: (§8) Cytochrome P4503A4 Inhibition Assay for Determining IC50
(§9) The potential of the compound to inhibit CYP 3A4 was tested by the LC-MS/MS based probe substrate method using human liver microsomes. Midazolam or testosterone, which are metabolized to hydroxymidazolam or hydroxytestosterone by CYP 3A4, were the probe substrates used. […] NADPH was added as the cofactor. […] After incubation for ten minutes, the amount of 1-hydroxymidazolam or 6β-hydroxyltestosterone formed was determined by LC-MS/MS method as a measure of enzyme activity. Percent inhibition of enzyme activity was calculated based on the amount of metabolites (1-hydroxymidazolam or 6β-hydroxyltestosterone) formed for each sample relative to the basal control and plotted in a curve versus the compound concentration to obtain the IC50.

P-gp = P-gp (Homo sapiens, UniProt P08183); conditions: background statement; cited from earlier work
Sequence of P-gp (P08183 whole entry): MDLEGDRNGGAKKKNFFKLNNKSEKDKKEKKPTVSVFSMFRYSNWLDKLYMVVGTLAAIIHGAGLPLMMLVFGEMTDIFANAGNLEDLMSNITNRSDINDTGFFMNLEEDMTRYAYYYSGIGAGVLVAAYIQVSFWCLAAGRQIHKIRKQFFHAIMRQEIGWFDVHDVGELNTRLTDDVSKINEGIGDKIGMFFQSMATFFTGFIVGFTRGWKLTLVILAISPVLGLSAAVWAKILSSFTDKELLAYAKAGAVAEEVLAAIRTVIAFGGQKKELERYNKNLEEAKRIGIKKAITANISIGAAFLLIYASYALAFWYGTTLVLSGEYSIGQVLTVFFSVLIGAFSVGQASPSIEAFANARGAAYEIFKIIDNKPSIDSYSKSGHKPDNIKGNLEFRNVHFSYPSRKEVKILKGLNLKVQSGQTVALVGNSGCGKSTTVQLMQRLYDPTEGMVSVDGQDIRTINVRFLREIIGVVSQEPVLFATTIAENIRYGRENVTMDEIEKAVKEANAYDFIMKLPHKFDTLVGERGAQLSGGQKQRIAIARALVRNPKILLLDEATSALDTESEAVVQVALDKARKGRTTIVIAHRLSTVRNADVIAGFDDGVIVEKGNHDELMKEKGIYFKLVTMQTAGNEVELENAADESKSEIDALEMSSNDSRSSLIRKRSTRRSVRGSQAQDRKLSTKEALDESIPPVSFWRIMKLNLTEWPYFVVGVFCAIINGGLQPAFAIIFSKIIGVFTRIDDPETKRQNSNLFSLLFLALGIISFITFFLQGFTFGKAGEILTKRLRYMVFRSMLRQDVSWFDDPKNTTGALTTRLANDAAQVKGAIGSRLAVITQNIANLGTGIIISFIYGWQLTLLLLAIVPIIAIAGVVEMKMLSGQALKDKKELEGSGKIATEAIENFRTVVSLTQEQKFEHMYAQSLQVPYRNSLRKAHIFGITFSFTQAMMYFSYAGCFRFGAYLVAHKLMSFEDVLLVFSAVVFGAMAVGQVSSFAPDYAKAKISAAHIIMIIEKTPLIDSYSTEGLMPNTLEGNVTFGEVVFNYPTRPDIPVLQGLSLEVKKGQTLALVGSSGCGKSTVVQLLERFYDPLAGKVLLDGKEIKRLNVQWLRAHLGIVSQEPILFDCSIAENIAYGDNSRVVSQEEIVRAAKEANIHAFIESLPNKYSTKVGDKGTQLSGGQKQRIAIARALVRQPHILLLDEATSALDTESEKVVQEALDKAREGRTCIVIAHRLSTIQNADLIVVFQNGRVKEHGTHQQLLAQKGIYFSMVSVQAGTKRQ

[6] = test system: S. pneumoniae ATCC 49619 (CLSI QC strain); assay: Minimum inhibitory concentration (MIC), broth microdilution, QC strain; assay type: cell-based, Streptococcus pneumoniae; conditions: MIC in duplicates
Method: as §1, §2, §3, §4, §5, §6, §7

[7] = test system: S. pneumoniae AUCC483, macrolide resistant & penicillin sensitive; assay: Minimum inhibitory concentration (MIC), broth microdilution, AUCC483; assay type: cell-based, Streptococcus pneumoniae
Method: as §1, §2, §3, §4, §5, §6, §7

CYP3A4 [8] = molecular target: T1, CYP3A4; assay: Cytochrome P4503A4 inhibition assay, human liver microsomes, LC-MS/MS probe substrate method; conditions: for IC50: human liver microsomes 0.1 mg/mL, 10 min; for CYP3A4 inhibition in comparison with solithromycin and ketoconazole: summary of Table 1
Method: as §8, §9

[9] = Oral bioavailability and tissue distribution after a single oral treatment; assay type: in vivo
[10] = test system: macrolide-resistant S. pneumoniae strains; assay: Mouse lung infection models; assay type: in vivo
[11] = read-out: IC50 CYP3A4 (midazolam), 5 μM midazolam
[12] = read-out: IC50 CYP3A4 (testosterone), 50 μM testosterone

T1 sequence (P08684 whole entry): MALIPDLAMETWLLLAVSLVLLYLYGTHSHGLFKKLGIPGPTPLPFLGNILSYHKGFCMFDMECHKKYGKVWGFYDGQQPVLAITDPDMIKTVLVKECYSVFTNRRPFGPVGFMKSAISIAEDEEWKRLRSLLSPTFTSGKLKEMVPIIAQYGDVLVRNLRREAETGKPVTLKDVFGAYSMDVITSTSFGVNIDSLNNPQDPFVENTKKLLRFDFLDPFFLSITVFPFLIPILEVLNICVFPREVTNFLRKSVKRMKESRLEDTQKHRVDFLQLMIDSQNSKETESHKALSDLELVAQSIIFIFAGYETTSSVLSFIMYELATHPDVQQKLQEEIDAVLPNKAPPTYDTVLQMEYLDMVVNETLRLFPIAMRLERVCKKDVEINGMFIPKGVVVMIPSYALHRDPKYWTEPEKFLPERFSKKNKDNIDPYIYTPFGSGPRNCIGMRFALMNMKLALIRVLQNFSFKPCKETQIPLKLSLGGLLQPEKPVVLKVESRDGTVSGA

Compound	inhibition of CYP3A4 (CYP3A4 [1])	IC50 (CYP3A; Katz et al / FDA briefing document, read-out: IC50 of CYP3A-dependent nifedipine oxidation) [µM]	IC50 of CYP3A-dependent nifedipine oxidation (CYP3A; same value in ng/mL) [µg/mL]	MIC Strep. Pneumoniae AUCC 489 penR, macR cMLS [2] [µg/mL]	MIC Strep. Pneumoniae AUCC 488 penR, macR M or iMLS [3] [µg/mL]	MIC Strep. Pneumoniae AUCC 479 penS, macS [4] [µg/mL]	IC50 (CYP3A4 [5])	inhibition of P-gp (P-gp)	MIC ([6]; Streptococcus pneumoniae, ATCC49619 QC strain, read-out: MIC Strep. Pneumoniae ATCC49619 QC strain) [µg/mL]	MIC Strep. Pneumoniae AUCC 483 penS, macR cMLS [7] [µg/mL]	IC50 (CYP3A4 [8]; [11]) [µM]	CYP3A4 inhibition in comparison with solithromycin and ketoconazole (CYP3A4 [8])	time drug level in the lungs remained elevated ([9]; lungs, after a single oral treatment)	oral bioavailability ([9]; oral)	tissue distribution ([9]; oral)	efficacy in mouse lung infection models [10]	MIC Strep. Pneumoniae ATCC49619 QC strain [6] [µg/mL]	IC50 (CYP3A4 [8]; [12]) [µM]
CC[C@H]1OC(=O)[C@H](C)C(=O)[C@H](C)[C@@H](O[C@@H]2O[C@H](C)C[C@H](N(C)C)[C@H]2O)[C@](C)(OC/C=C/c2cnc3ccccc3c2)C[C@@H](C)C(=O)[C@H](C)[C@H]2NC(=O)O[C@@]21C [cethromycin]	strong inhibition	0.63	0.4825	–	–	–	–	–	–	–	–	–	–	–	–	–	–	–
CC[C@H]1OC(=O)[C@@](C)(F)C(=O)[C@H](C)[C@@H](O[C@@H]2O[C@H](C)C[C@H](N(C)C)[C@H]2O)[C@](C)(OC)C[C@@H](C)C(=O)[C@H](C)[C@H]2N(CCCCn3cc(-c4cccc(N)c4)nn3)C(=O)O[C@]12C [solithromycin, reference compound]	strong inhibitor	–	–	0.004 to 0.008	0.06 to 0.25	0.004 to 0.015	0.4 µM and 1.49 µM	moderate inhibitor	0.004 to 0.015 (≈ 4.73 to 17.8 nM)	0.008 to 0.015	–	–	–	–	–	–	–	–
(3aS,4R,7R,9R,10R,11R,13R,15R,15aR)-10-{[(2S,3R,4S,6R)-4-(dimethylamino)3-hydroxy-6-methyloxan-2-yl]oxy}-1-[3-(dimethylamino)propyl]-4-ethyl-3a,7,9,11,13,15-hexamethyl-11-{[(2E)-3-(quinolin-3-yl)prop-2-en-1-yl]oxy}tetradecahydro-1H-oxacyclotetradeca[4,3-d][1,3]oxazole-2,6,8,14-tetrone [Compound 13B]	–	–	–	0.12 to 0.25	0.12 to 0.25	0.008 to 0.015	–	–	–	0.12 to 0.25	6.4	lower IC50 inhibition of CYP3A4 inhibition	at least 8 hours	excellent	excellent	demonstrated efficacy	0.015 to 0.03	–
(3aS,4R,7R,9R,10R,11R,13R,15R,15aR)-10-{[(2S,3R,4S,6R)-4-(dimethylamino)-3-hydroxy-6-methyloxan-2-yl]oxy}-4-ethyl-3a,7,9,11,13,15-hexamethyl-1-[3-(morpholin-4-yl)propyl]-11-{[(2E)-3-(quinolin-3-yl)prop-2-en-1-yl]oxy}-tetradecahydro-1H-oxacyclotetradeca[4,3-d][1,3]oxazole-2,6,8,14-tetrone [Compound 13J]	–	–	–	1 to 2.0	1	0.03 to 0.06	–	–	–	0.5 to 2	5.9	lower IC50 inhibition of CYP3A4 inhibition	–	–	–	–	0.06 to 0.12	–
(3aS,4R,7R,9R,10R,11R,13R,15R,15aR)-10-{[(2S,3R,4S,6R)-4-(dimethylamino)-3-hydroxy-6-methyloxan-2-yl]oxy}-4-ethyl-3a,7,9,11,13,15-hexamethyl-1-{2-[(2R)-1-methylpyrrolidin-2-yl]ethyl}-11-{[(2E)-3-(quinolin-3-yl)prop-2-en-1-yl]oxy}-tetradecahydro-1H-oxacyclotetradeca[4,3-d][1,3]oxazole-2,6,8,14-tetrone [Compound 13P]	–	–	–	0.12 to 0.25	0.5 to 1	0.015 to 0.03	–	–	–	0.06 to 0.12	–	lower IC50 inhibition of CYP3A4 inhibition	–	–	–	–	0.03 to 0.06	6.3
(3aS,4R,7R,9R,10R,11R,13R,15R,15aR)-10-{[(2S,3R,4S,6R)-4-(dimethylamino)-3-hydroxy-6-methyloxan-2-yl]oxy}-4-ethyl-3a,7,9,11,13,15-hexamethyl-1-{2-[(2S)-1-methylpyrrolidin-2-yl]ethyl}-11-{[(2E)-3-(quinolin-3-yl)prop-2-en-1-yl]oxy}-tetradecahydro-1H-oxacyclotetradeca[4,3-d][1,3]oxazole-2,6,8,14-tetrone [Compound 13Q]	–	–	–	0.12 to 0.25	0.5 to 1	0.015 to 0.03	–	–	–	0.12 to 0.25	–	lower IC50 inhibition of CYP3A4 inhibition	–	–	–	–	0.03 to 0.06	4.8

From US10717757B2, “Ketolides having antibacterial activity” (BIOPHARMATI SA, priority 2016, dated 2020)
